We go through seven compounds from the supplement of paper PMC11061612.

SMILES strings stand for the structures.

Assay [1] concerns H-EMC-SS (Chondrosarcoma). The assay can be described thus: Bliss excess, mean over the matrix (fraction); higher = more synergy. The method in brief:
(§1)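 Bliss excess equals the observed combination effect minus the expected value EA + EB − EA·EB, where EA and EB are the effects of each agent alone. Combination Emax is the second-highest inhibition within the matrix. Inhibition was scaled from CellTiter-Glo 2.0 luminescence, with 0 set by vehicle wells and 1 by blank wells, after 72 hours of two-drug dosing of cells plated in 1536-well plates.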

For assay [2], the system named is KYSE-50 (Esophageal Squamous Cell Carcinoma). Described as above. The method in brief: as §1
Another assay deals with U-87-MG (Glioblastoma). The assay is described as above. Summed up: as §1
The next assay deals with GOTO (Neuroblastoma). The assay is described as above. Summed up:
as §1

Assay [3] concerns KP-2 (Pancreatic Carcinoma). Described as above. The method in brief:
as §1

The subject of assay [4] is SNU-C1 (Colorectal Carcinoma). Described as above. The method in brief:
as §1

The test system of another assay is EW-3 (Ewing's Sarcoma). The description is as above. Summed up: as §1
In assay [5] the test system is MFE-319 (Endometrial Carcinoma). The assay is described as above. Summed up: as §1
The next assay deals with EW-18 (Ewing's Sarcoma). The assay is described as above. Summed up:
as §1

Assay [6] has as its system SCC-3 (B-Cell Non-Hodgkin's Lymphoma). The description is as above. Summed up:
as §1

In assay [7] the test system is NCI-N87 (Gastric Carcinoma). The description is as above. Summed up: as §1
Assay [8] has as its system HC-1 (Other Blood Carcinomas). The assay is described as above. The method in brief:
as §1

Assay [9] relates to NCI-H322M (Lung Adenocarcinoma). The assay is described as above. The method in brief:
as §1

A further assay has as its system IMR-5 (Neuroblastoma). Description: combination Emax (second highest fraction inhibited in the dose matrix, 72 h); higher = more inhibition; extreme values may be limits of the assay. The method in brief:
as §1

The subject of assay [10] is HSC-2 (Oral Cavity Carcinoma). The assay is described as above. Summed up:
as §1

The subject of assay [11] is BV-173 (Chronic Myelogenous Leukemia). Described as above. Summed up: as §1
The test system of assay [12] is OCUM-1 (Gastric Carcinoma). The assay is described as above. Summed up: as §1
For assay [13], the system named is LC4-1 (B-Lymphoblastic Leukemia). The description is as above. The method in brief:
as §1

The next assay concerns EW-13 (Ewing's Sarcoma). Described as above. The method in brief:
as §1

Assay [14] has as its system DG-75 (Burkitt's Lymphoma). The description is as above. Summed up: as §1

In the case of `CC1(C)CCC(CN2CCN(c3ccc(C(=O)NS(=O)(=O)c4ccc(NCC5CCOCC5)c([N+](=O)[O-])c4)c(Oc4cnc5[nH]ccc5c4)c3)CC2)=C(c2ccc(Cl)cc2)C1` [Venetoclax] + COc1cc(Nc2ncc3c(n2)-c2ccc(Cl)cc2C(c2c(F)cccc2OC)=NC3)ccc1C(=O)O [Alisertib] (first compound max 1 µM, 7x7, partner max 10 µM), the Bliss excess in assay [1] was 0.0092; in assay [2] it was -0.0101; with U-87-MG (Glioblastoma) it was -0.087; in the assay with GOTO (Neuroblastoma), -0.0217; in [3], -0.0293; in assay [4], -0.0323. Moreover, the Bliss excess in the assay on EW-3 (Ewing's Sarcoma) was 0.079; in assay [5], -0.0256; in the assay with EW-18 (Ewing's Sarcoma), 0.0421; in assay [6], 0.0308; in assay [7], -0.0675; in assay [8] it was 0.18. Further, the Bliss excess in assay [9] was -0.0612. Besides, the “combination Emax” value in the assay on IMR-5 (Neuroblastoma) worked out at 1; in [10], 0.732; in [11], 0.971; in assay [12], 0.51; in [13] it was 1; in the assay on EW-13 (Ewing's Sarcoma) it was 0.294. Moreover, the “combination Emax” value in assay [14] came out at 0.518.
As to `NC1(C(=O)N[C@@H](CCO)c2ccc(Cl)cc2)CCN(c2ncnc3[nH]ccc23)CC1` [Capivasertib] + Cn1cnc2c(F)c(Nc3ccc(Br)cc3Cl)c(C(=O)NOCCO)cc21 [Selumetinib] (first compound max 10 µM, 7x7, partner max 10 µM), the Bliss excess in assay [1] is 0.0635; in assay [2] it was -0.036; with U-87-MG (Glioblastoma) it was -0.0316; with GOTO (Neuroblastoma), 0.0355; in assay [3], 0.0094; in [4], -0.0085. Moreover, the Bliss excess with EW-3 (Ewing's Sarcoma) is -0.0091; in [5], 0.0088; in the assay with EW-18 (Ewing's Sarcoma), -0.0219; in [6], 0.0627; in [7], 0.01; in [8], 0.0123. In addition, the Bliss excess in assay [9] stood at 0.0035. Further, the “combination Emax” value was determined as 0.168 in the assay on IMR-5 (Neuroblastoma); 0.721 in assay [10]; 0.718 in [11]; 0.937 in assay [12]; 0.575 in [13]; 0.249 with EW-13 (Ewing's Sarcoma). For the same compound, the “combination Emax” value in assay [14] amounted to 0.398.
On to `NC1(C(=O)N[C@@H](CCO)c2ccc(Cl)cc2)CCN(c2ncnc3[nH]ccc23)CC1` [Capivasertib] + CCN(CCO)CCCOc1ccc2c(Nc3cc(CC(=O)Nc4cccc(F)c4)[nH]n3)ncnc2c1 [AZD2811] (first compound max 10 µM, 7x7, partner max 1 µM), for which the Bliss excess was -0.0105 in assay [1]; 0.0278 in assay [2]; 0.0175 in the assay on U-87-MG (Glioblastoma); 0.0047 in the assay on GOTO (Neuroblastoma); -0.0433 in assay [3]; -0.0407 in assay [4]. Besides, the Bliss excess in the assay on EW-3 (Ewing's Sarcoma) is 0.0117; in [5], -0.107; in the assay with EW-18 (Ewing's Sarcoma), -0.0358; in assay [6] it was 0.0443; in assay [7], -0.0529; in assay [8], -0.0564. Also, in assay [9], the Bliss excess was 0.0203. Besides, the “combination Emax” value with IMR-5 (Neuroblastoma) is 1; in [10], 0.707; in assay [11] it was 0.915; in assay [12], 0.683; in assay [13], 0.905; in the assay with EW-13 (Ewing's Sarcoma), 0.388. Besides, in assay [14], the “combination Emax” value was 0.606.
As for `CC1(C)CCC(CN2CCN(c3ccc(C(=O)NS(=O)(=O)c4ccc(NCC5CCOCC5)c([N+](=O)[O-])c4)c(Oc4cnc5[nH]ccc5c4)c3)CC2)=C(c2ccc(Cl)cc2)C1` [Venetoclax] + CN(C)CCCOc1ccc(-c2ccc3ncc4c(c3c2)n(C2CCOCC2)c(=O)n4C)cn1 [AZD0156] (first compound max 1 µM, 7x7, partner max 1 µM), the Bliss excess in assay [1] is -0.0387; in assay [2], -0.0399; with U-87-MG (Glioblastoma) it was -0.0163; with GOTO (Neuroblastoma) it was -0.0194; in [3], -0.0193; in assay [4] it was -0.051. The Bliss excess in the assay with EW-3 (Ewing's Sarcoma) was 0.032; in assay [5] it was 0.0513; in the assay with EW-18 (Ewing's Sarcoma), 0.0697; in assay [6] it was 0.0194; in [7], -0.0763; in assay [8] it was -0.0244. In addition, the Bliss excess in assay [9] is -0.0103. In addition, the “combination Emax” value was 0.0957 in the assay on IMR-5 (Neuroblastoma); 0.722 in [10]; 0.833 in [11]; 0.284 in assay [12]; 1 in [13]; 0.062 in the assay with EW-13 (Ewing's Sarcoma). Moreover, the “combination Emax” value in [14] was 0.125.
With `CC1(C)CCC(CN2CCN(c3ccc(C(=O)NS(=O)(=O)c4ccc(NCC5CCOCC5)c([N+](=O)[O-])c4)c(Oc4cnc5[nH]ccc5c4)c3)CC2)=C(c2ccc(Cl)cc2)C1` [Venetoclax] + C1CN(CCC1(C(=O)N[C@@H](CCO)C2=CC=C(C=C2)Cl)N)C3=NC=NC4=C3C=CN4 [Capivasertib] (first compound max 1 µM, 7x7, partner max 3 µM), the Bliss excess in assay [1] was -0.0204; in assay [2], -0.0418; in the assay with U-87-MG (Glioblastoma), -0.0214; with GOTO (Neuroblastoma) it was 0.0111; in assay [3], -0.0586; in assay [4], -0.109. Further, the Bliss excess with EW-3 (Ewing's Sarcoma) is 0.0001; in assay [5] it was -0.0414; in the assay with EW-18 (Ewing's Sarcoma), -0.0281; in [6], -0.0335; in [7] it was -0.0833; in [8], 0.0217. Further, the Bliss excess in [9] is -0.103. The “combination Emax” value stood at 0.19 in the assay with IMR-5 (Neuroblastoma); 0.364 in [10]; 0.897 in assay [11]; 0.314 in assay [12]; 1 in assay [13]; 0.213 in the assay with EW-13 (Ewing's Sarcoma). Moreover, the “combination Emax” value in assay [14] was found to be 0.179.
With `Cc1c2c(nn1C)CSCc1cc(n(C)n1)CSc1cc(c3ccccc3c1)OCCCc1c(C(=O)O)n(C)c3c-2c(Cl)ccc13` [AZD5991] + Cc1cc2ncnn2cc1Nc1ncc2c(n1)n(C1CCOCC1)c(=O)n2C [AZD7648] (first compound max 1 µM, 7x7, partner max 10 µM), the Bliss excess in assay [1] is 0.0025; in [2], -0.0461; in the assay on U-87-MG (Glioblastoma), -0.0311; with GOTO (Neuroblastoma), -0.02; in assay [3], -0.0103; in [4] it was -0.0742. Further, the Bliss excess with EW-3 (Ewing's Sarcoma) is -0.0626; in [5], -0.0534; in the assay on EW-18 (Ewing's Sarcoma), -0.0254; in assay [6], -0.0119; in [7] it was -0.0367; in assay [8], -0.024. Besides, the Bliss excess in assay [9] was -0.05. Moreover, the “combination Emax” value worked out at 1 with IMR-5 (Neuroblastoma); 0.844 in [10]; 0.946 in assay [11]; 0.215 in assay [12]; 0.968 in assay [13]; 0.403 with EW-13 (Ewing's Sarcoma). Further, the “combination Emax” value in assay [14] was found to be 0.362.
In the case of `CC1(C)CCC(CN2CCN(c3ccc(C(=O)NS(=O)(=O)c4ccc(NCC5CCOCC5)c([N+](=O)[O-])c4)c(Oc4cnc5[nH]ccc5c4)c3)CC2)=C(c2ccc(Cl)cc2)C1` [Venetoclax] + CCN(CCO)CCCOc1ccc2c(Nc3cc(CC(=O)Nc4cccc(F)c4)[nH]n3)ncnc2c1 [AZD2811] (first compound max 1 µM, 7x7, partner max 1 µM), the Bliss excess in [1] was -0.0468; in [2] it was 0.0025; in the assay with U-87-MG (Glioblastoma), -0.0009; with GOTO (Neuroblastoma), 0.0162; in [3], -0.0247; in assay [4], -0.0321. The Bliss excess with EW-3 (Ewing's Sarcoma) is 0.0634; in assay [5], 0.0015; in the assay on EW-18 (Ewing's Sarcoma), -0.0131; in [6] it was 0.0418; in assay [7], -0.004; in assay [8] it was 0.177. The Bliss excess in [9] was -0.0153. For the same compound, the “combination Emax” value came to 1 in the assay with IMR-5 (Neuroblastoma); 0.327 in [10]; 0.958 in assay [11]; 0.53 in assay [12]; 1 in assay [13]; 0.109 in the assay with EW-13 (Ewing's Sarcoma). Moreover, the “combination Emax” value in assay [14] came out at 0.204.
